Values of other authors in patent US12584131B2, “Methods of gene therapy” (OREGON HEALTH & SCIENCE UNIVERSITY, priority 2018, dated 2026).

System: CYP enzymes
Conditions: not given

Row | SMILES | Metabolizing CYP
1 | O=P1(N(CCCl)CCCl)NCCCO1 (stereo not drawn) [Cyclophosphamide] | CYP2B6, CYP2C9, CYP3A4
2 | CC(=O)Nc1ccc(O)cc1 [Acetaminophen] | CYP2E1, CYP1A2, CYP3A4, CYP2D6

Same assay, conditions: CYP enzymes that activate the prodrug (protoxin)

Row | SMILES | Metabolizing CYP
3 | CN(C)/N=N/c1[nH]cnc1C(N)=O [Dascarbazine] | CYP1A1, CYP1A2, CYP2E1
4 | O=c1[nH]c(=O)n(C2CCCO2)cc1F (stereo not drawn) [Tegafur] | CYP2A6, CYP1A2, CYP2C8
5 | C/C=C1\C[C@@H](C)[C@@](C)(O)C(=O)OC/C2=C/CN(C)CC[C@@H](OC1=O)C2=O [Senkirkin] | CYP3A4
6 | CC(=O)N1CCN(c2ccc(OCC3COC(Cn4ccnc4)(c4ccc(Cl)cc4Cl)O3)cc2)CC1 (stereo not drawn) [Ketoconazole] | CYP3A4
7 | COc1cccc(C2(O)CCCCC2CN(C)C)c1 (stereo not drawn) [Tramadol] | CYP2D6
8 | Nc1c2c(nc3ccccc13)CCCC2 [Tacrine] | CYP1A2

Same assay, conditions: listed as acetaminophen

Row | SMILES | Metabolizing CYP
9 | CC(=O)Nc1ccc(O)cc1 [Acetaminophen] | CYP1A2, CYP2E1, and CYP3A4
